Measured values: article PMC7408072 (Pharmaceutics, 2020)
Peptide text beside a SMILES is read from it. * marks the point of attachment. 5TAMRA = CN(C)c1ccc2c(c1)Oc1cc(N(C)C)ccc1C21OC(=O)c2cc(C(=O)*)ccc21

Tests used:
[1] = test system: filter-grown BCECs co-cultured with rat astrocytes; assay: Cellular viability, XTT assay; type: cell-based; conditions: 100 µM peptide, 3 h, bovine BCEC/rat astrocyte co-culture, N = 3, n = 3
Protocol: Briefly, the XTT labelling mixture was prepared by mixing electron coupling reagent with XTT labelling reagent at a 1:50 ratio. After peptide incubation, the monolayers were washed twice with 37 °C hHBSS. We applied 300 µL and 1 mL 37 °C hHBSS to the apical and basolateral compartments, respectively, prior to the addition of 150 µL XTT labelling mixture. The filters were incubated at 37 °C with horizontal shaking (90 rpm) for 1 h. Two 100 µL samples were withdrawn from the apical compartments and the absorbance measured at 466 nm using a SPECTROstar Nano plate reader (BMG Labtech, Offenburg, Germany). The relative cell viability was calculated as follows: Relative viability (%)=Asample−ASDS/Abuffer−ASDS×100% where Asample is the absorbance of the test sample, ASDS is the absorbance of the negative control (100% dead cells), and Abuffer is the absorbance of the positive control (100% viable cells).

blood–brain barrier = assay: In vivo two-photon imaging of BBB permeation; conditions: 3 nmol peptide/g body weight via femoral artery, 1 h, mean ± SEM, N = 5; for BBB permeation: AUC of change in TAMRA fluorescence in the brain parenchyma: anesthetized C57BL/6 mice, two-photon imaging; for clearance: AUC of decreased fluorescence in the blood stream: blood vessel ROIs
Protocol: Animals and operational procedure: We used 12–14-week-old C57BL/6 mice (24–26 g) and performed the surgical procedures as described previously. Anesthesia was induced by intraperitoneal (i.p.) injection of xylazine (10 mg/kg body weight; ScanVet, Fredensborg, Denmark) and ketamine (60 mg/kg body weight; MSD Animal Health, København, Denmark), and maintained by supplementary i.p. injections of ketamine (30 mg/kg body weight) every 20–25 min. The trachea was surgically exposed, and a custom-made metal tube inserted into the trachea lumen for mechanical respiration (180–220 μL volume; 190–240 strokes/min) with oxygen-supplemented air (1.5–2 mL/min) using a MiniVent Type 845 ventilator (Harvard Apparatus, Holliston, MA, USA). Catheters were inserted into the femoral vein and the femoral artery. The incisions were closed with surgical staples. After cannulation, the animal was placed in a prone position. The scalp was removed and FeCl3 (0.62 M) administered to clean off the periosteum. The exposed skull was subsequently washed with saline, dried, and attached to a custom-made metal plate using a cyanoacrylate gel (Henkel’s LOCTITE®, Düsseldorf, Germany). The animal head was mounted onto the imaging stage insert and craniotomy performed using a dental drill (7000 rpm; 4 mm lateral and 1 mm posterior to bregma, Ø = 3 mm). The bone flap and dura were carefully removed, and the surface of the brain gently washed with artificial cerebrospinal fluid (120 mM NaCl, 2.8 mM KCl, 1 mM Na2HPO4, 0.876 mM MgCl2, 22 mM NaHCO3, 1.45 mM CaCl2, 2.55 mM glucose, pH 7.4, 37 °C, 5% CO2). We applied 1% type III-A agarose to the brain surface, and a Menzel glass coverslip (4 × 4 mm, 0.08-mm thick; Thermo Fischer Scientific, Bedford, MA, USA) was positioned to seal the major part of the craniotomy, leaving only an opening for the glass microelectrode used in the electrophysiological assessment. The mouse was transferred to the imaging stage. Following the insertion of the glass microelectrode, the anesthesia was switched to α-chloralose administered intravenously at a constant flow of 50 mg/kg body weight/hour. The mouse was left for 25 min for anesthesia equilibration before imaging. During all procedures, the animal was maintained at 37 °C using a YSI-451rectal thermistor probe (E-Z Systems, Palmer, PA, USA) with a TC-1000 Mouse Proportional controlling unit connected to a heating pad (08-13013; CWE Incorporated, Palmer, PA, USA). To ensure optimal animal physiology and level of anesthesia, end-tidal respiratory CO2 was measured using a Capnograph Type 340 (Harvard Apparatus, Holliston, MA, USA), and mean arterial blood pressure was monitored using a BP-1 pressure monitor (World Precision Instruments, Sarasota, FL, USA).
Imaging of BBB permeation: TAMRA-Tat, TAMRA-Tat-NR2B9c, and TAMRA-Tat-N-dimer were administered as 60 µL bolus injections via the catheter inserted into the femoral artery (3 nmol/g body weight). […] The imaging was performed using an SP5 upright laser scanning microscope equipped with a 20 × 1.0 N.A. water-immersion objective (Leica Microsystems, Wetzlar, Germany). Images were obtained in a hyperstack mode, i.e., in a series of Z-stacks in 1-min intervals. Each Z-stack underwent a reduction of dimensionality (maximum signal intensity projection along the Z-axis). TAMRA and FITC were excited with a Millennia Pro MaiTai HP Ti:Sapphire two-photon laser (Spectra Physics, Santa Clara, CA, USA) tuned to 870 nm. The signal was acquired by two multi-alkali NDD photomultipliers after 525–560 and 560–625 nm band pass filters for FITC-dx and TAMRA fluorescence, respectively. Data were exported from LAS AF software (v. 4.4, Leica Microsystems, Wetzlar, Germany) to ImageJ v. 1.48u4 (NIH).

Tissue distribution = type: in vivo, NMRI mice
Protocol: Following 1 h of circulation, the mice were deeply anesthetized by i.p. injection of 0.05 mL/10 g body weight Ketaminol/Dexdormitor (2.25 mg ketamine/0.03 mg […] per 10 g body weight in 0.9% NaCl). The chest cage was opened and the mice transcardially perfused with 0.01 M PBS (pH 7.4) prior to isolation of the brain, heart, lungs, spleen, kidney, liver, and 2 cm of the upper part of the intestine. All tissues were immediately put on ice and kept at −80 °C until analysis.
The tissues were homogenized in 1 mL of ice-cold lysis buffer using a 7-mL Dounce tissue grinder set (Merck, St. Louis, MO, USA). Homogenates were left on ice for 10 min prior to centrifugation at 14,000× g and 4 °C for 10 min. Supernatants (100 µL) were transferred to a black clear-bottom 96-well plate for quantification of the TAMRA-peptides using a NovoStar fluorescence plate reader (BMG Labtech, Offenburg, Germany) with excitation and emission set to 542 and 568 nm, respectively. The molar peptide amounts were calculated using standard curves that were freshly prepared in lysates from relevant blank tissue at concentrations ranging from 30 nM to 2 µM.

[2] = 3 nmol/g i.v., 1 h, NMRI mice, comparison among the Tat-conjugates

| SMILES | cell viability compared to media-treated control cells [1] | BBB permeation: AUC of change in TAMRA fluorescence in the brain parenchyma (blood–brain barrier) | clearance: AUC of decreased fluorescence in the blood stream (blood–brain barrier) | TAMRA fluorescence in the kidney (Tissue distribution; [2]) | tissue uptake at 1 h (Tissue distribution; male, NMRI, mouse, brain, iv, 3 nmol/g body weight, mice, tissue distribution (abstract), read-out: brain accumulation) | accumulation in the liver (Tissue distribution; [2]) | amount in mouse brain homogenate (Tissue distribution; 3 nmol peptide/g body weight, tail vein, 1 h circulation, perfused NMRI mice, TAMRA fluorescence in whole tissue homogenate, mean ± SD, N = 4-6) | accumulation in the intestines (Tissue distribution; [2]) | TAMRA fluorescence in the brain homogenates (comparison) (Tissue distribution; 3 nmol/g i.v., 1 h, NMRI mice, unpaired t-test) |
| --- | --- | --- | --- | --- | --- | --- | --- | --- | --- |
| CC[C@H](C)[C@H](NC(=O)[C@H](CO)NC(=O)[C@H](CO)NC(=O)[C@H](CC(C)C)NC(=O)[C@H](CCCCN)NC(=O)c1ccc2c(c1)C(=O)OC21c2ccc(N(C)C)cc2Oc2cc(N(C)C)ccc21)C(=O)N[C@@H](CCC(=O)O)C(=O)N[C@@H](CO)C(=O)N[C@@H](CC(=O)O)C(=O)N[C@H](C(=O)O)C(C)C [TAMRA-NR2B9c] (5TAMRA-KLSSIESDV-OH) | did not decrease cell viability | – | – | – | – | – | – | – | – |
| CC[C@H](C)[C@H](NC(=O)CCOCCOCCN(CCOCCOCCC(=O)N[C@H](C(=O)N[C@@H](CCC(=O)O)C(=O)N[C@H](C(=O)N[C@@H](CC(=O)O)C(=O)N[C@H](C(=O)O)C(C)C)[C@@H](C)O)[C@@H](C)CC)C(=O)[C@H](CCCNC(=N)N)NC(=O)[C@H](CCCNC(=N)N)NC(=O)[C@H](CCCNC(=N)N)NC(=O)[C@H](CCC(N)=O)NC(=O)[C@H](CCCNC(=N)N)NC(=O)[C@H](CCCNC(=N)N)NC(=O)[C@H](CCCCN)NC(=O)[C@H](CCCCN)NC(=O)[C@H](CCCNC(=N)N)NC(=O)CNC(=O)[C@H](Cc1ccc(O)cc1)NC(=O)c1ccc2c(c1)C(=O)OC21c2ccc(N(C)C)cc2Oc2cc(N(C)C)ccc21)C(=O)N[C@@H](CCC(=O)O)C(=O)N[C@H](C(=O)N[C@@H](CC(=O)O)C(=O)N[C@H](C(=O)O)C(C)C)[C@@H](C)O [TAMRA-Tat-N-dimer] | slight, but non-significant, decrease | 6.90 ± 3.90 F/F0 min | −15.02 ± 0.55 F/F0 min | more fluorescence in the kidney than TAMRA-Tat or TAMRA-Tat-NR2B9c | 0.25 %ID/g | – | – | – | – |
| CC[C@H](C)[C@H](NC(=O)[C@H](CO)NC(=O)[C@H](CO)NC(=O)[C@H](CC(C)C)NC(=O)[C@H](CCCCN)NC(=O)[C@H](CCCNC(=N)N)NC(=O)[C@H](CCCNC(=N)N)NC(=O)[C@H](CCCNC(=N)N)NC(=O)[C@H](CCC(N)=O)NC(=O)[C@H](CCCNC(=N)N)NC(=O)[C@H](CCCNC(=N)N)NC(=O)[C@H](CCCCN)NC(=O)[C@H](CCCCN)NC(=O)[C@H](CCCNC(=N)N)NC(=O)CNC(=O)[C@H](Cc1ccc(O)cc1)NC(=O)c1ccc2c(c1)C(=O)OC21c2ccc(N(C)C)cc2Oc2cc(N(C)C)ccc21)C(=O)N[C@@H](CCC(=O)O)C(=O)N[C@@H](CO)C(=O)N[C@@H](CC(=O)O)C(=O)N[C@H](C(=O)O)C(C)C [TAMRA-Tat-NR2B9c] (5TAMRA-YGRKKRRQRRRKLSSIESDV-OH) | slight, but non-significant, decrease | 5.54 ± 2.95 F/F0 min | −4.97 ± 1.26 F/F0 min | – | – | to a greater extent than TAMRA-Tat and TAMRA-Tat-N-dimer | – | – | – |
| CN(C)c1ccc2c(c1)Oc1cc(N(C)C)ccc1C21OC(=O)c2cc(C(=O)N[C@@H](Cc3ccc(O)cc3)C(=O)NCC(=O)N[C@@H](CCCNC(=N)N)C(=O)N[C@@H](CCCCN)C(=O)N[C@@H](CCCCN)C(=O)N[C@@H](CCCNC(=N)N)C(=O)N[C@@H](CCCNC(=N)N)C(=O)N[C@@H](CCC(N)=O)C(=O)N[C@@H](CCCNC(=N)N)C(=O)N[C@@H](CCCNC(=N)N)C(=O)N[C@@H](CCCNC(=N)N)C(=O)O)ccc21 [TAMRA-Tat] | slight, but non-significant, decrease | 32.21 ± 10.17 F/F0 min | −17.85 ± 1.71 F/F0 min | – | – | – | 0.4% ± 0.1% | superior | slightly higher levels |
